Literature values, collected in patent US20060153925A1, “Novel solid pharmaceutical composition comprising amisulpride” (Sanofi-Aventis, priority 2003, published 2006).

Conditions: administered orally; attributed to partial gastrointestinal absorption

CCN1CCCC1CNC(=O)c1cc(S(=O)(=O)CC)c(N)cc1OC (racemic) [amisulpride, 4-amino-N-[(1-ethyl-2-pyrrolidin-yl)methyl]-5-(ethylsulfonyl)-2-methoxybenzamide]
bioavailability: about 48%
